Key:
[1] = biological target: T1, Mitogen-activated protein kinase 14 (Homo sapiens, UniProt Q16539); assay: Inhibition of P38 alpha MAPK
[2] = Oral bioavailability in rhesus monkey; format: ADME, organism-based, Macaca mulatta; conditions: in vivo
[3] = Half life in rhesus monkey, iv; format: ADME, organism-based, Macaca mulatta; conditions: in vivo
[4] = biological target: T1, Mitogen-activated protein kinase 14; assay: Inhibition of LPS stimulated TNF alpha release in whole blood; format: functional, tissue-based
[5] = Volume of distribution in rat; format: ADME, organism-based; conditions: in vivo, read-out: Vdss
[6] = Plasma clearance in rat; format: ADME, organism-based
[7] = Half life in rat, iv; format: ADME, organism-based; conditions: in vivo
[8] = biological target: T1, Mitogen-activated protein kinase 14; assay: Inhibition of TNF alpha release in THP1 cells; format: functional, cell-based, THP-1
[9] = Volume of distribution in rhesus monkey; format: ADME, organism-based, Macaca mulatta; conditions: in vivo, read-out: Vdss
[10] = Plasma clearance in rhesus monkey; format: ADME, organism-based, Macaca mulatta
[11] = Oral bioavailability in rat; format: ADME, organism-based; conditions: in vivo
[12] = Oral bioavailability in dog; format: ADME, organism-based, Canis lupus familiaris; conditions: in vivo
[13] = Plasma clearance in dog; format: ADME, organism-based, Canis lupus familiaris
[14] = Half life in dog, iv; format: ADME, organism-based, Canis lupus familiaris; conditions: in vivo
[15] = Volume of distribution in dog; format: ADME, organism-based, Canis lupus familiaris; conditions: in vivo, read-out: Vdss

T1 sequence (Q16539 whole entry): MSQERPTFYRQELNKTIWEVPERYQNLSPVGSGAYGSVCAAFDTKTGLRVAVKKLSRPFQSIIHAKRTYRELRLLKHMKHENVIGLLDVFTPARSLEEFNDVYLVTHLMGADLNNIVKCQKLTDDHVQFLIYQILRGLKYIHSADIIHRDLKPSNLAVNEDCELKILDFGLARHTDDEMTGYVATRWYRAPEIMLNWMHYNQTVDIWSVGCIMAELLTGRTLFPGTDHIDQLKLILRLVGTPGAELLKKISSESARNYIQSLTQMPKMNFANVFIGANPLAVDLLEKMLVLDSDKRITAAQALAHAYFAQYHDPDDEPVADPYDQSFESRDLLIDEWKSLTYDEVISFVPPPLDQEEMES

SMILES	IC50 [1]	bioavailability [2]	half-life [3]	IC50 [4]	Vd [5]	clearance [6]	half-life [7]	IC50 [8]	Vd [9]	clearance [10]	bioavailability [11]	bioavailability [12]	clearance [13]	half-life [14]	Vd [15]
C[C@@H](C(=O)O)N1CCC(c2cc(-c3ccc(F)cc3Cl)c3ccc(=O)n(-c4c(Cl)cccc4Cl)c3c2)CC1	1.3 nM			28 nM	0.7 L/kg	59 mL/min/kg	0.44 h	3.2 nM			0.11%				
COC(=O)C(C)(C)N1CCC(c2cc(-c3ccc(F)cc3Cl)c3ccc(=O)n(-c4c(Cl)cccc4Cl)c3c2)CC1	6.7 nM			130 nM				2.59 nM							
CC(C)(C)N1CCC(c2cc(-c3ccc(F)cc3F)c3ccc(=O)n(-c4c(Cl)cccc4Cl)c3c2)CC1	0.14 nM	56.5%	9.7 h	2.4 nM	3.82 L/kg	11.9 mL/min/kg	4.13 h	1.7 nM	26.2 L/kg	29.2 mL/min/kg	69.3%	36.2%	5.5 mL/min/kg	19.8 h	8.99 L/kg
CC(C)(C)N1CCC(c2cc(-c3ccccc3Cl)c3ccc(=O)n(-c4c(Cl)cccc4Cl)c3c2)CC1	0.1 nM			6.4 nM				1 nM							
O=c1ccc2c(-c3ccc(F)cc3Cl)cc(C3CC4CCC(C3)N4)cc2n1-c1c(Cl)cccc1Cl (stereo not given)	0.45 nM			14.5 nM	6.2 L/kg	37 mL/min/kg	2.56 h	0.89 nM			13%				
CC(C)(C(=O)O)N1CCC(c2cc(-c3ccc(F)cc3Cl)c3ccc(=O)n(-c4c(Cl)cccc4Cl)c3c2)CC1	0.84 nM			79.1 nM				3.75 nM							
CN1C2CCC1CC(c1cc(-c3ccc(F)cc3Cl)c3ccc(=O)n(-c4c(Cl)cccc4Cl)c3c1)C2 (stereo not given)	0.61 nM			7.71 nM	6.87 L/kg	27 mL/min/kg	3.12 h	0.82 nM			30%				
CC1(C)C=C(c2cc(-c3ccc(F)cc3Cl)c3ccc(=O)n(-c4c(Cl)cccc4Cl)c3c2)CC(C)(C)N1	0.26 nM			24.2 nM	7.32 L/kg	30.1 mL/min/kg	3.17 h	3.32 nM			36%				
CC(C)N1C2CCC1CC(c1cc(-c3ccc(F)cc3Cl)c3ccc(=O)n(-c4c(Cl)cccc4Cl)c3c1)C2 (stereo not given)	0.51 nM			8.51 nM	5.23 L/kg	18 mL/min/kg	3.36 h	0.99 nM			44%				
CC(C)(C)N1CCC(Oc2cc(-c3ccc(F)cc3Cl)c3ccc(=O)n(-c4c(Cl)cccc4Cl)c3c2)CC1	7.1 nM			16.2 nM				2.4 nM							
CC(C)(C)N1CCC(c2cc(-c3ccc(F)cc3Cl)c3ccc(=O)n(-c4c(Cl)cccc4Cl)c3c2)CC1	0.31 nM	49%	13.6 h	2.6 nM	3.84 L/kg	14 mL/min/kg	3.5 h	0.27 nM	52.8 L/kg	52.9 mL/min/kg	47.7%	83%	26.8 mL/min/kg	5.59 h	23.8 L/kg
CC(C)(C)N1CCC(c2cc3c(ccc(=O)n3-c3c(Cl)cccc3Cl)c(-c3ccccc3Cl)n2)CC1	1.4 nM			6.8 nM	10.1 L/kg	25 mL/min/kg	5.1 h				66%	9.35%	37.6 mL/min/kg	5.42 h	15.1 L/kg

Continued by falling IC50 [1], values first:

IC50 [1]	bioavailability [2]	half-life [3]	IC50 [4]	Vd [5]	clearance [6]	half-life [7]	IC50 [8]	Vd [9]	clearance [10]	bioavailability [11]	bioavailability [12]	clearance [13]	half-life [14]	Vd [15]	SMILES
10.5 nM			18.4 nM				2.2 nM								CC(C)(C)N1CCC(Oc2cc(-c3ccc(F)cc3F)c3ccc(=O)n(-c4c(F)cccc4F)c3c2)CC1
8.1 nM			28 nM				1.3 nM								COC(=O)C(C)N1CCC(c2cc(-c3ccc(F)cc3Cl)c3ccc(=O)n(-c4c(Cl)cccc4Cl)c3c2)CC1 (stereo not given)
3.2 nM			25 nM				3.8 nM								C[C@H](C(=O)O)N1CCC(c2cc(-c3ccc(F)cc3Cl)c3ccc(=O)n(-c4c(Cl)cccc4Cl)c3c2)CC1
1.87 nM							0.77 nM								CC(C)(C)N1CCC(Oc2cc(-c3ccc(F)cc3F)c3ccc(=O)n(-c4c(Cl)cccc4Cl)c3c2)CC1
1.6 nM			13 nM	6.17 L/kg	34.1 mL/min/kg	2.33 h	1.8 nM			32.3%					CC(C)(C)N1CCC(Oc2cc(-c3ccccc3Cl)c3ccc(=O)n(-c4c(Cl)cccc4Cl)c3c2)CC1
1.15 nM			50.8 nM				0.74 nM								CC(C)(C)N1CC=C(c2cc(-c3ccc(F)cc3Cl)c3ccc(=O)n(-c4c(Cl)cccc4Cl)c3c2)CC1
0.51 nM	23%	6.5 h	5.2 nM	24 L/kg	32.3 mL/min/kg	9.05 h	0.69 nM	21.6 L/kg	41.5 mL/min/kg	62%	99.3%	20.5 mL/min/kg	15.5 h	23.8 L/kg	CC(C)(C)N1CCC(c2cc3c(ccc(=O)n3-c3c(Cl)cccc3Cl)c(-c3ccc(F)cc3F)n2)CC1
0.38 nM	33%	5.32 h	5.3 nM	11.4 L/kg	39.6 mL/min/kg	3.69 h	1.6 nM	22.1 L/kg	47.5 mL/min/kg	67.3%					CC(C)(C)N1CCC(c2cc3c(ccc(=O)n3-c3c(Cl)cccc3Cl)c(-c3ccc(F)cc3Cl)n2)CC1
0.3 nM	31.5%	9.55 h	1 nM	3.77 L/kg	18.5 mL/min/kg	9.96 h	0.42 nM	28.6 L/kg	35.1 mL/min/kg	57%					CC(C)(C)N1CCC(c2cc(-c3ccc(F)cc3Cl)c3ccc(=O)n(-c4c(F)cccc4F)c3c2)CC1
